# Laboratory results published in patent US12162935B2, “Regimens, compositions and methods with capsaicin and TNF-alpha inhibitor” (priority 2018, dated 2024).
# Columns and labels:
# [1] = tested on: Wistar rats; test: ABR threshold shifts, cisplatin-induced hearing loss; assay type: in vivo, rat
# Experimental: Adult male Wistar rats (200-350 g) (from Envigo) were used for this study. Rats were housed in a temperature controlled room with a twelve hour light/dark cycle. They had free access to commercial food and water provided by the SIU Laboratory Animal Care facility.
# Prior to experiments, rats were anesthetized with ketamine HCl/xylazine mixture (24.6/3 mg/kg) and then placed in a sound-attenuation chamber (Industrial Acoustic Company, Inc.). Body temperature of the rats was maintained at 37° C. with an animal blanket system. Pretreatment auditory brainstem responses (ABRs) was performed using an IHS-High-frequency System (Intelligent Hearing Systems, Miami, FL). The rats were exposed to acoustic stimuli via HIS transducers that were directly placed at the entrance of the ear canal. ABR thresholds were obtained for 5 ms duration tone bursts at 8, 16 and 32 kHz at a rate of 50/s. Thresholds were determined by visually produced lowest intensity evoked potentials (EP) that progressed in 10 dB steps. Evoked potentials (Eps) were amplified to 200,000×, and were band pass filtered (100-3000 Hz) and averaged over 1024 sweeps [Mukherjea et al., 2010].
# At the end of auditory testing, the anesthetized animals were decapitated and the cochlea harvested. The SIU Laboratory Animal Care and Use Committee approved all animal procedures.
# Male Wistar rats were anesthetized using ketamine/xylazine cocktail. The tympanic membrane was punctured as described in [Mukherjea et al., 2010].
# [2] = tested on: UB/OC-1 cells; test: Western blot of STAT1, STAT3 and JAK2 phosphorylation; assay type: cell-based, mouse
# [3] = tested on: UB/OC-1 cells; test: Cell viability assay (MTS assay); assay type: cell-based
# Experimental: The in vitro UB/OC1 cell proliferation was performed by using the CellTiter 96® AQueous One Solution Cell Proliferation Assay Kit (Promega, Madison, WI), according to the manufacturer's instructions. 3,500 cells were seeded per well into a 96-well plate. […] After 48 h, 20 μl of CellTiter 96 AQueous One Solution reagent was added to each well in 100 μl of total volume of media. Cells were incubated for 1 h, and recorded absorbance at 490 nm using an ELISA plate reader. The absorbance is directly proportional to the number of living cells and is expressed as a percent relative to vehicle-treated cells.
# [4] = biological target: TRPV1 (Homo sapiens, UniProt Q8NER1); test: Ca2+ imaging (Fluo-4AM) in HEKVR1 cells; assay type: cell-based
# Chain of TRPV1 (Q8NER1 whole entry, species assumed): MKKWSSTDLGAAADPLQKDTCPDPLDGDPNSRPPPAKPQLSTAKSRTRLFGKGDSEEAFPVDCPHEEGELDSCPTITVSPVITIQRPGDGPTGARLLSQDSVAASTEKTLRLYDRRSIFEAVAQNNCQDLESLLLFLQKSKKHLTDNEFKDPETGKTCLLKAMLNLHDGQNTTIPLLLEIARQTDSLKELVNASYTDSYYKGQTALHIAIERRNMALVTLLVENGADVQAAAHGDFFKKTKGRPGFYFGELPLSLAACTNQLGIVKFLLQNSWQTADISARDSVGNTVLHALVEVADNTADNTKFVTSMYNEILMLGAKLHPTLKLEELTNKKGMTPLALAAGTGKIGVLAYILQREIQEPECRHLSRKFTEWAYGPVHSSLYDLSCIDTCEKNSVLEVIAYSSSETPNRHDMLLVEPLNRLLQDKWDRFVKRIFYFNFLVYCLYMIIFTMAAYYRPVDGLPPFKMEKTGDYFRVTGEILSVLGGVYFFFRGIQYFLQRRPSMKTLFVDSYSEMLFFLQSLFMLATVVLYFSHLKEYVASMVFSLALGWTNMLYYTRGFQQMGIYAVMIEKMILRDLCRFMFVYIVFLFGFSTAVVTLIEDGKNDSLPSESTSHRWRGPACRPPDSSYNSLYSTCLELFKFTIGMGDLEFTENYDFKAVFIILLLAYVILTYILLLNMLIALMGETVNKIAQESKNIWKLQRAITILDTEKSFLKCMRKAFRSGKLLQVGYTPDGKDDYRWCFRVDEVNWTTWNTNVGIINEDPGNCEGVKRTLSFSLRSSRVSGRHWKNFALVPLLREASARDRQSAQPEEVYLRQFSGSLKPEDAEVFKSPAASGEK
# From the text: (§1) NE has been linked to immediate increase in ROS generation and persistent oxidative stress in the cochlea2, leading to generation of reactive oxygen species such as: hydroxyl […] (OH^−), superoxide anion (O^2—) and hydrogen peroxide (H2O2).
# [5] = tested on: UB/OC-1 cells; test: Ca2+ imaging (Fluo-4AM) in UB/OC-1 cells; assay type: cell-based, mouse
# From the text: as §1
# [6] = tested on: UB/OC1 cells; test: Cell death by TUNEL
# Experimental: UB/OC1 cells were treated with either scrambled siRNA or TRPV1 siRNA for 24 h.
# [7] = tested on: ERK1/2; test: ERK1/2 activation by western blotting; assay type: cell-based, mouse; conditions: 100 μM H2O2 or TNF-α 0.1 μg/ml
# [8] = tested on: rat cochlea; test: Immunolabelling of mid-modiolar cochlear sections, fluorescent intensity analyses; assay type: in vivo
# Experimental: Cochleae were perfused with a 4% paraformaldehyde solution, cochleae were decalcified for 7-10 days in 120 mM EDTA, embedded them in paraffin and then sectioned the specimens [Mukherjea et al., 2010]. Slides were deparaffined, rehydrated and then stained with primary and secondary antibodies. Glass coverslips were mounted on the specimens with ProLong Diamond mounting medium. Images were obtained using a Leica confocal microscope (Buffalo Grove, IL).
# Image J software was used to analyze the mean gray area for the various images. These values were then used to quantify the increase or decrease in % fluorescence intensity of the various regions of the samples compared to control.
# [9] = tested on: rat cochlea; test: Cochlear gene expression by q-PCR (cisplatin study); assay type: in vivo; conditions: 72 h following cisplatin
# [10] = tested on: UMSCC-10b cells; test: SCID mouse xenograft model; assay type: in vivo; conditions: single agent: cisplatin 2 mg/kg ip or oral capsaicin 0.5 mg/kg
# Experimental: SCID mice (from Envigo, 5-6 weeks of age) were injected subcutaneously with 1.5×10^6 mycoplasma-free UMSCC 10B cells in one flank. […] At the time of each treatment, tumor volumes were calculated based on the formula: volume=width2×(length/2) [Jajoo et al.]. Mice were killed 24 h after the eleventh treatment. All procedures were performed in accordance with relevant guidelines and regulations of SIU School of Medicine.
# [11] = tested on: outer hair cells (OHCs); test: Outer hair cell damage by SEM and whole mount hair cell count; assay type: in vivo, rat; conditions: basal turn, cisplatin
# From the text: Immediately after completion of post-treatment ABRs, rats were euthanized and their cochleae were harvested and the specimens processed as described previously by [Kamimura et al.]. Sputter-coated cochlea were viewed and photographed with a Hitachi S-500 scanning electron microscope (Hitachi Ltd.). The resulting scanning electron micrographs were examined to determine qualitative morphological characteristics in various regions including the basal, middle, and apical turns of the rat cochlea.
# Two representative areas of the basal turn, middle turn, and apex and hook portion were photographed. In each area, outer hair cells (OHCs) were counted in an area that was 10 pillar cell heads in length. The results are presented as the percentage hair cell damage per cochlear turn. At least three cochleae from different animals per treatment group were used.
# To study the organization of the outer hair cells and inner hair cells, the cochlear whole mount technique was used. The cochleae was fixed in fresh 4% paraformaldehyde overnight, and then decalcified in […] EDTA for 2 weeks, (pH 7.3) while stirring at room temperature for 2 weeks. After decalcification, the cochleae was microdissected into basal, middle, and apical turns for whole-mount preparation.
# For further processing, segments were washed with 1×PBS twice for 5 mins. For blocking, the segments were incubated in 10% blocking serum (horse serum) for 3 hrs at room temperature. The segments were incubated with primary antibody in 0.2% Triton prepared in PBS and refrigerated overnight. The following day, the segments were washed in PBS (three washes) for 5 mins each wash. The segments were washed in secondary antibody for 2 hrs at room temperature in the dark. The antibodies were then washed with PBS (three washes). Glass coverslips were then mounted on the segments with ProLong Diamond Antifade Mountant (Thermo Fisher Scientific) and incubated them at room temperature overnight and then stored them in 4 degrees. Images were procured using a Leica confocal microscope (Buffalo Grove, IL).
# For hair cell count in whole mount preparations, two to three random areas from the basal turn from each treatment group separately were selected. Hair cells were counted in […] segments of the cochlea respectively. Counts were averaged across treatment group. This was further normalized as % of PBS (control) by taking the values of control as 100%.
# [12] = TNF-α 0.1 μg/ml 60 seconds prior to 100 μM H2O2, till 5 minutes
# [13] = BCTC 100 nM 45 min then capsaicin 2.5 μM
# [14] = capsaicin 2.5 μM 30 min and/or cisplatin 2.5 μM 45 min (FIG. 5.E)
compound,measurement,setting,value
COc1ccc(C(=O)c2c(C)n(CCN3CCOCC3)c3cc(I)ccc23)cc1 [AM630],ABR thresholds,[1]; AM630 trans-tympanic alone or in combination with capsaicin,significant increases in ABR thresholds
same,effect on capsaicin protection against cisplatin-induced hearing loss,[1]; AM630 trans-tympanic before oral capsaicin 20 mg/kg and cisplatin,reversed the protective effect of oral capsaicin
same,capsaicin-induced Ser^727 p-STAT1,[2],significantly decreased
same,capsaicin-induced Tyr p-STAT3,[2],significantly decreased
same,JWH015 increase of p-STAT3,[2]; AM630 10 μM 30 min before JWH015,reversed
same,cell viability compared to capsaicin,[3]; AM630 30 minutes prior to capsaicin for 24 h,significantly decreased cell viability
COc1cccc(-c2cc(=O)c3ccccc3o2)c1N [PD98059],H2O2-induced calcium release,[4]; 10 μM PD98059 pre-treatment,little or no calcium release
same,H2O2-induced calcium release,[5]; 10 μM PD98059 pre-treatment,little or no calcium release
same,cell death/apoptosis by 100 μM H2O2,[6],significantly decreased cell death
Cc1c(C(=O)NN2CCOCC2)nn(-c2ccc(Cl)cc2Cl)c1-c1ccc(I)cc1 [AM281],capsaicin-induced Ser^727 p-STAT1,[2],had no effect
same,capsaicin-induced Tyr p-STAT3,[2],did not alter
TNF-α,H2O2-induced calcium release,[4]; [12],prolonged sustained calcium release
same,H2O2-induced calcium release,[5]; [12],prolonged sustained calcium release
same,time of highest ERK activation post treatment,[7],30 min
"CC(C)(C)c1ccc(NC(=O)N2CCN(c3ncccc3Cl)CC2)cc1 [BCTC, N-(4-tertiarybutylphenyl)-4-(3-chloropyridin-2-yl) tetrahydropyrazine-1(2H)-carbox-amide]",TRPV1 mediated STAT1-Ser^727 phosphorylation,[2]; [13],decreases
same,Tyr STAT3 phosphorylation,[2]; [13],without significantly altering
"OO [H2O2, hydrogen peroxide]",time of highest ERK activation post treatment,[7],60 min
CCCn1c(C)c(C(=O)c2cccc3ccccc23)c2ccccc21 [JWH015],p-STAT3,[2]; JWH015 10 μM 30 min,increased p-STAT3
N.N.[Cl][Pt][Cl] [cisplatin],Tyr p-STAT3,"[2]; 2.5 μM, at 120 minutes",sustained inhibition
same,JAK2 phosphorylation,"[2]; 2.5 μM, time course",persistent and significant reductions
same,Ser^727 p-STAT1,"[2]; 2.5 μM, up to 120 min",persistent increase
same,p-STAT1,[2]; [14],120±2%
same,p-STAT3,[2]; [14],106.5±2.5%
same,"CB2 labelling in the OHCs, SGs and SVA",[8]; single agent,did not significantly change
same,"TRPV1, NOX3 and iNOS labelling in the OHCs, SG and SVA",[8]; single agent vs control,significantly increased
same,"increases in TRPV1, NOX3 and INOS expression",[9],2-3 fold
same,"tumor growth (volume, size, weight)",[10],significantly reduced
same,loss or damage of outer hair cells compared to vehicle controls,[11]; SEM,ten-fold
same,outer hair cell death,"[11]; whole mount, myosin VIIa",43±4%
O=[N+]([O-])c1ccc2c(c1)S(=O)(=O)C=C2 [STATTIC],Tyr^705 p-STAT3 levels,[2]; STATTIC 100 nM,significantly reduced
same,cell death,[3]; STATTIC 100 nM alone,did not induce cell death
same,protective action of capsaicin against cisplatin-induced cell killing,[3]; STATTIC 100 nM pre-treatment,abrogated the protective action of capsaicin
